From paper PMC9106665 (Communications Biology, 2022)
Positions count from the first letter of the chain named. In brackets after ≈: the same amount, converted by molar mass. Several values for one entry are separate records, joined by “and”; a condition that tells them apart may be missing. Equal values may be shown once. Read-outs that look alike come from different tables or passages of the source.

Key:
E. coli DHFR (EcDHFR) = target: T1, E. coli DHFR (EcDHFR) (Escherichia coli, UniProt P0ABQ4); experiment: biochemical
T1 construct: E. coli DHFR gene (UniProtKB:P0ABQ4) and dfrA1 gene (UniProtKB:A4GRC7) were synthesized and cloned in pET-41a (+) vector; made in house; host or cells: E. coli BL21(DE3)
Experimental: (§1) The assay was performed at room temperature using the Shimadzu UV/visible spectrophotometer. A standard reaction buffer contained 20 mM TES, pH 7.0, 50 mM KCl, 10 mM β-mercapthoethanol, 0.5 mM EDTA, and 1 mg/ml BSA. […] All measurements were performed in triplicate, from at least two independent experiments.

DfrA5 [1] = target: T2, DfrA5 (Escherichia coli, UniProt P11731); experiment: biochemical; design: species or system E. coli
Experimental: as §1

EcDHFR D27E [2] = target: T3, EcDHFR D27E (Escherichia coli, UniProt P0ABQ4, D27E); experiment: Enzyme inhibition assay (NADPH oxidation, 340 nm); assay type: biochemical
T3 construct: using E. coli DHFR template previously synthesized by GeneScript; made in house; host or cells: E. coli BL21(DE3)
T3 sequence (P0ABQ4 1-159 D27E): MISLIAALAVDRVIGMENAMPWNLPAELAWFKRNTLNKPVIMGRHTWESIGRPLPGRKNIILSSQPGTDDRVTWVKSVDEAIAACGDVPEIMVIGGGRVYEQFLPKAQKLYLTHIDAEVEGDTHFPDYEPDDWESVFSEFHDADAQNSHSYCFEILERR
Experimental: as §1

EcDHFR D27E/L28Q [3] = target: T4, EcDHFR D27E/L28Q (Escherichia coli, UniProt P0ABQ4, D27E/L28Q); experiment: Enzyme inhibition assay (NADPH oxidation, 340 nm); assay type: biochemical
T4 construct: using E. coli DHFR template previously synthesized by GeneScript; made in house; host or cells: E. coli BL21(DE3)
T4 sequence (P0ABQ4 1-159 D27E/L28Q): T3 sequence (P0ABQ4 1-159 D27E) with L28Q
Experimental: as §1

EcDHFR L28Q [4] = target: T5, EcDHFR L28Q (Escherichia coli, UniProt P0ABQ4, L28Q); experiment: Enzyme inhibition assay (NADPH oxidation, 340 nm); assay type: biochemical
T5 construct: using E. coli DHFR template previously synthesized by GeneScript; made in house; host or cells: E. coli BL21(DE3)
T5 sequence (P0ABQ4 1-159 L28Q): T3 sequence (P0ABQ4 1-159 D27E) with E27D, L28Q
Experimental: as §1

DfrA1 and DfrA5 = assay type: biochemical, E. coli; conditions: range over DfrA1 and DfrA5
Experimental: as §1

EcDHFR [5] = target: T6, EcDHFR (Escherichia coli, UniProt P0ABQ4); assay type: binding
T6 construct: E. coli DHFR gene (UniProtKB:P0ABQ4) and dfrA1 gene (UniProtKB:A4GRC7) were synthesized and cloned in pET-41a (+) vector; made in house; host or cells: E. coli BL21(DE3)
Experimental: (§2) In all, 200 µg of purified enzyme was preincubated for 18 h without and with a 10× molar excess of the ligand(s) (NADPH, TMP or PLA) in 20 mM Hepes 7.5, 100 mM KCl, 5% glycerol, ±2.0% DMSO and 2 mM DTT buffer. […] Changes in intrinsic fluorescence intensity (measured ratio of absorbance at 350 nm over 330 nm) from tryptophan residues were used to calculate derivatives using the evaluation features provided by the Tycho instrument.

DfrA1 [6] = target: T7, DfrA1 (Escherichia coli, UniProt P00382); assay type: binding, E. coli
T7 construct: dfrA1 gene (UniProtKB:A4GRC7) were synthesized and cloned in pET-41a (+) vector; made in house; host or cells: E. coli BL21(DE3)
T7 sequence (P00382 1-157): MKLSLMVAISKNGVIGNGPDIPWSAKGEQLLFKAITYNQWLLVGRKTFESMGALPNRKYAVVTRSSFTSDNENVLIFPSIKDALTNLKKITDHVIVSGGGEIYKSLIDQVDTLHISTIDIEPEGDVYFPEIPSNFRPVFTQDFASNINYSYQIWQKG
Experimental: as §2

E. coli BW25113 = experiment: microbe, parasite or virus in culture; assay type: cell-based; conditions: for MIC: Escherichia coli, 80% inhibition of growth
Experimental: (§3) Preparation, handling of cultures and the antibiotic susceptibility testing was performed according to CLSI guidelines. […] The compounds at the highest concentrations alone and paired with Sulfamethoxazole (1:19 w/w ratio) were then added to the first well before being serially diluted (2-fold) throughout the plate, leaving the last well with broth only (negative growth control). Next, 50 μl of the inoculum was added to each well.

[7] = system: E. coli JW0451 acrB mutant strain; experiment: microbe, parasite or virus in culture; assay type: cell-based; conditions: for MIC: w/o SMX, 80% inhibition of growth, 18 to 20 hours, 37°C
Experimental: as §3

[8] = system: E. coli BL21(DE3) strain overexpressing EcDHFR wt; experiment: Antibacterial activity (MIC); assay type: cell-based; conditions: Escherichia coli, w/o SMX
[9] = system: E. coli BL21(DE3) strain overexpressing DfrA1; experiment: Antibacterial activity (MIC); assay type: cell-based; conditions: Escherichia coli
[10] = system: E. coli BL21(DE3) strain overexpressing DfrA5; experiment: Antibacterial activity (MIC); assay type: cell-based; conditions: Escherichia coli
[11] = remark limiting MST studies
DfrA5 [12] = target: T2, DfrA5; assay type: binding, E. coli; design: E. coli dfrA5 gene (UniProtKB:A0A4Y6L037) was synthesized and cloned in pET-24a (+) vector with the same restriction sites; 6xHis tag (C); made in house; host or cells: E. coli BL21(DE3)
Experimental: as §2, with “instrument. The inflection temperature (Ti) as a marker of protein structural integrity was determined by the first derivative of the signal (ratio of 350 nm/330 nm).” for “instrument.”

DfrA1 [13] = assay type: biochemical, E. coli
Text: (§4) using a nonlinear regression method in GraphPad Prism 9.2.0 software. To determine the turnover number (kcat) using the same model, the enzyme concentration (based on the protein concentration determined by Bradford assay) was constrained to a constant value and analyzed by the following equation (Eq. 3):3 Y=Et×kcat×X/(Km+X)

DfrA5 [14] = assay type: biochemical, E. coli
Text: as §4

EcDHFR D27E [15] = target: T3, EcDHFR D27E; experiment: Steady-state kinetic measurements; assay type: biochemical; conditions: varied substrate 1 to 200 µM, 25 °C
Text: as §4

EcDHFR D27E/L28Q [16] = target: T4, EcDHFR D27E/L28Q; experiment: Steady-state kinetic measurements; assay type: biochemical; conditions: varied substrate 1 to 200 µM, 25 °C
Text: as §4

EcDHFR L28Q [17] = target: T5, EcDHFR L28Q; experiment: Steady-state kinetic measurements; assay type: biochemical; conditions: varied substrate 1 to 200 µM, 25 °C
Text: as §4

EcDHFR [18] = target: T6, EcDHFR; experiment: biochemical; assay type: binding
DfrA1 [19] = target: T7, DfrA1; experiment: biochemical; assay type: binding, E. coli
DfrA5 [20] = target: T2, DfrA5; experiment: biochemical; assay type: binding, E. coli
[21] = binary complex, 10× molar excess of ligand

Q: What does the source list for `CCc1nc(N)nc(N)c1C#CC(C)c1cc(-c2ccc(C(N)=O)cc2)ccc1Cl` (centres unmarked) [UCP1228]?
A: Ki (E. coli DHFR (EcDHFR)): 0.00273 ± 9e-05 µM; Ki (DfrA5 [1]): 0.0201 ± 0.00039 µM; Ki (EcDHFR D27E [2]): 0.0118 ± 0.0004 µM; fold increase in Ki over EcDHFR (EcDHFR D27E [2]; D27E substitution): 4 fold; Ki (EcDHFR D27E/L28Q [3]): 0.189 ± 0.00536 µM; fold loss in affinities relative to EcDHFR (EcDHFR D27E/L28Q [3]; combinatorial mutant D27E/L28Q): 69 fold; Ki (EcDHFR L28Q [4]): 0.0105 ± 0.00069 µM; fold loss of activity against DfrA1 and DfrA5 compared to EcDHFR (DfrA1 and DfrA5): 10–14 fold; Ti 1 (EcDHFR [5]; [21]): 65.5 ± 4.6 °C; Ti 2 (EcDHFR [5]; [21]): 76.5 ± 2.5 °C; Δ1 (Ti shift vs apo) (EcDHFR [5]; [21]): 15.9 °C; Δ2 (Ti shift vs apo) (EcDHFR [5]; [21]): 16.3 °C; Ti 1 (EcDHFR [5]; ternary complex, +NADPH): 64.3 ± 0.1 °C; Ti 2 (EcDHFR [5]; ternary complex, +NADPH): 75.7 ± 1.6 °C; Δ1 (Ti shift vs apo) (EcDHFR [5]; ternary complex, +NADPH): 14.7 °C; Δ2 (Ti shift vs apo) (EcDHFR [5]; ternary complex, +NADPH): 15.5 °C; Ti (DfrA1 [6]; [21]): 55.4 ± 1.7 °C; Δ (Ti shift vs apo) (DfrA1 [6]; [21]): 5.6 °C; Ti (DfrA1 [6]; ternary complex, +NADPH): 66.5 ± 3.3 °C; Δ (Ti shift vs apo) (DfrA1 [6]; ternary complex, +NADPH): 16.7 °C; Fold difference in MIC (E. coli BW25113; BW25113 w/o SMX vs w/ SMX): 16; MIC (E. coli BW25113; BW25113, w/ SMX (1:19)): 0.625 µg/mL (≈ 1.49 µM); MIC (E. coli BW25113; BW25113, w/o SMX, 18 to 20 hours, 37°C): 10 µg/mL (≈ 23.8 µM); Fold difference in MIC ([7]; BW25113 w/o SMX vs JW0451 w/o SMX): 8; MIC ([7]; Escherichia coli): 1.25 µg/mL (≈ 2.98 µM); MIC [7]: 0.625 µg/mL (≈ 1.49 µM); MIC [8]: 20 µg/mL (≈ 47.6 µM); MIC ([9]; w/ SMX (1:19)): 20 µg/mL (≈ 47.6 µM); MIC ([9]; w/o SMX): > 20 µg/mL; MIC ([10]; w/ SMX (1:19)): 20 µg/mL (≈ 47.6 µM); MIC ([10]; w/o SMX): > 20 µg/mL; solubility [11]: low; Δ (Ti shift vs apo) (DfrA5 [12]; [21]): 3.7 °C; Ti (DfrA5 [12]; ternary complex, +NADPH): 77.3 ± 4.7 °C; Δ (Ti shift vs apo) (DfrA5 [12]; ternary complex, +NADPH): 11 °C

Q: Which results are given for `NC(=O)C1=CN([C@@H]2O[C@H](COP(=O)(O)OP(=O)(O)OC[C@H]3O[C@@H](n4cnc5c(N)ncnc54)[C@H](OP(=O)(O)O)[C@@H]3O)[C@@H](O)[C@H]2O)C=CC1` [NADPH]?
A: fold increase in KM compared to EcDHFR (DfrA1 [13]): 2 fold; fold increase in KM compared to EcDHFR (DfrA5 [14]): 3 fold; Km (EcDHFR D27E [15]): 5.8 ± 0.9 µM; kcat (EcDHFR D27E [15]): 5.9 ± 0.3 s⁻¹; Km (EcDHFR D27E/L28Q [16]): 11.1 ± 1.6 µM; kcat (EcDHFR D27E/L28Q [16]): 3.8 ± 0.2 s⁻¹; Km (EcDHFR L28Q [17]): 7.6 ± 1.3 µM; kcat (EcDHFR L28Q [17]): 4.4 ± 0.2 s⁻¹; Ti 1 (EcDHFR [5]; [21]): 53.8 ± 0.4 °C; Ti 2 (EcDHFR [5]; [21]): 63.1 ± 1.3 °C; Δ1 (Ti shift vs apo) (EcDHFR [5]; [21]): 4.2 °C; Δ2 (Ti shift vs apo) (EcDHFR [5]; [21]): 2.9 °C; Ti (DfrA1 [6]; [21]): 56.5 ± 0.8 °C; Δ (Ti shift vs apo) (DfrA1 [6]; [21]): 6.7 °C; Kd (EcDHFR [18]; EcDHFR apo): 0.771 ± 0.145 µM; Kd (EcDHFR [18]; EcDHFR apo form, Fig. S5a titration): 0.661 µM; Kd (EcDHFR [18]; EcDHFR:TMP (preincubated with 1 µM TMP), titrant NADPH): 0.008 µM and 0.0081 µM; Fold change in KD (EcDHFR [18]; NADPH KD ± Trimethoprim): 95.2 ± 50.3; Kd (DfrA1 [19]; KD, DfrA1:TMP, titrant NADPH): 0.43 ± 0.095 µM; Kd (DfrA1 [19]; KD, DfrA1:UCP1228 (100 µM UCP1228), titrant NADPH): 0.289 ± 0.051 µM; Kd (DfrA1 [19]; KD, DfrA1 apo): 1.65 ± 0.23 µM; Kd (DfrA1 [19]; KD, DfrA1 apo, series NADPH KD ± UCP1228): 1.04 ± 0.106 µM; Kd (DfrA1 [19]; Kd, DfrA1 apo form (Fig. S8)): 1.04 ± 0.11 µM; Kd (DfrA1 [19]; Kd, DfrA1 preincubated with 100 µM UCP1228, titrant NADPH (Fig. S8)): 0.29 µM; Fold change in KD (DfrA1 [19]; NADPH KD ± Trimethoprim): 4 and 3.8 ± 1.0; Fold change in KD (DfrA1 [19]; NADPH KD ± UCP1228): 4 and 3.6 ± 0.7; Kd (DfrA5 [20]; DfrA5:TMP, titrant NADPH): 1.54 ± 0.38 µM; Kd (DfrA5 [20]; DfrA5:UCP1228 (100 µM UCP1228), titrant NADPH): 0.459 ± 0.157 µM; Kd (DfrA5 [20]; DfrA5 apo): 7.47 ± 1.67 µM; Kd (DfrA5 [20]; DfrA5 apo form (Fig. S8)): 6.84 µM; Kd (DfrA5 [20]; DfrA5 apo, series NADPH KD ± UCP1228): 6.84 ± 1.61 µM; Kd (DfrA5 [20]; DfrA5 preincubated with 100 µM UCP1228, titrant NADPH (Fig. S8)): 0.45 µM; Fold change in KD (DfrA5 [20]; NADPH KD ± Trimethoprim): 5 and 4.9 ± 1.6; Fold change in KD (DfrA5 [20]; NADPH KD ± UCP1228): 15 and 14.9 ± 6.2; Ti (DfrA5 [12]; [21]): 69.2 ± 0.5 °C; Δ (Ti shift vs apo) (DfrA5 [12]; [21]): 2.9 °C
